Laboratory results reported in ChEMBL document CHEMBL5338820, “Discovery and Design of Novel Cyclic Peptides as Specific Inhibitors Targeting CCN2 and Disrupting CCN2/EGFR Interaction for Kidney Fibrosis Treatment” (J Med Chem, 2023).
The source made the active and inactive calls. The calls are words filed in the database; no cut-off is given here. Peptide text beside a SMILES is read from it.

How the values were obtained:
Mus musculus [1] = experiment: Antifibrotic activity against Unilateral ureteric obstruction ligation induced C57BL/6J mouse kidney fibrosis model assessed as reduction of collagen formation at 50 microg/kg,ip administrated for 14 days by […] staining based analysis; type: functional, organism-based; conditions: dose 50.0 µg/kg, time 14.0 day
[2] = Half life in Sprague-Dawley rat at 1 mg/kg,SC measured upto 48 hrs by LC-MS/MS analysis; type: ADME, organism-based; conditions: in vivo
[3] = molecular target: T1, CCN family member 2 (Homo sapiens) (UniProt P29279); experiment: Inhibition of recombinant human CCN2 FL domain expressed in human […] cells assessed as reduction in STAT3 phosphorylation at 100 uM incubated for 24 hrs by Western blotting assay; type: cell-based
T1 sequence (whole entry): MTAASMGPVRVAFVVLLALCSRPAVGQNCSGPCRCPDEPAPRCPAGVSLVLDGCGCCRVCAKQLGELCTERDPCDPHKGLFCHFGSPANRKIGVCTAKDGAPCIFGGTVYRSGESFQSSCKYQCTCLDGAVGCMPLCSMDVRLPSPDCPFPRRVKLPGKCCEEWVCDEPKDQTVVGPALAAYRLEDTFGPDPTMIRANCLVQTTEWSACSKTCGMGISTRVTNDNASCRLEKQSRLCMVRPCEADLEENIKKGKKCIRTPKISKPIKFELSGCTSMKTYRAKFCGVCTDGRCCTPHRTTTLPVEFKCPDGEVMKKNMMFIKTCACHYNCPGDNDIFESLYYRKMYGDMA

Mus musculus [4] = experiment: Antifibrotic activity against Unilateral ureteric obstruction ligation induced C57BL/6J mouse kidney fibrosis model assessed as reduction of inflammatory infiltration at 50 microg/kg,ip administrated for 14 days by hematoxylin and eosin staining based analysis; type: functional, organism-based; conditions: dose 50.0 µg/kg, time 14.0 day
[5] = molecular target: T1, CCN family member 2 (Homo sapiens); experiment: Inhibition of recombinant human CCN2 CT domain expressed in human […] cells assessed as reduction in COL1A1 synthesis at 100 uM incubated for 24 hrs by Western blotting assay; type: cell-based
Mus musculus [6] = experiment: Antifibrotic activity against Unilateral ureteric obstruction ligation induced C57BL/6J mouse kidney fibrosis model assessed as downregulation of COL1A1 synthesis at 50 microg/kg,ip administrated for 14 days by Western blotting analysis; type: functional, organism-based; conditions: dose 50.0 µg/kg, time 14.0 day
[7] = Cmax in Sprague-Dawley rat at 1 mg/kg,SC measured upto 48 hrs by LC-MS/MS analysis; type: ADME, organism-based; parameters: time < 48 hrs, dose 1 mg/kg, route sc; conditions: in vivo
[8] = Toxicity in Unilateral ureteric obstruction C57BL/6J mouse model assessed as change in body weight at 50 microg/kg,ip administrated for 14 days; conditions: in vivo, 0.05 mg/kg, 336 h, dose 50 µg/kg, time 14 day
Mus musculus [9] = experiment: Antifibrotic activity against Unilateral ureteric obstruction ligation induced C57BL/6J mouse kidney fibrosis model assessed as downregulation of fibronectin synthesis at 50 microg/kg,ip administrated for 14 days by Western blotting analysis; type: functional, organism-based; conditions: dose 50.0 µg/kg, time 14.0 day
[10] = Toxicity in Unilateral ureteric obstruction C57BL/6J mouse model assessed as change in behaviour at 50 microg/kg,ip administrated for 14 days; conditions: in vivo, 0.05 mg/kg, 336 h, dose 50 µg/kg, time 14 day
CCN2-EGFR (Homo sapiens) [11] = molecular target: T2, CCN2-EGFR (Homo sapiens) (UniProt P00533+P29279); experiment: Inhibition of His-tagged full length human CCN2 CT domain/human Fc-tagged EGFR protein-protein interaction using TMB as chromogenic substrate at 100 uM incubated for 140 mins by microplate reader assay relative to control
T2 sequence (P00533 whole entry, looked up, one chain of several, the tested form may be a part): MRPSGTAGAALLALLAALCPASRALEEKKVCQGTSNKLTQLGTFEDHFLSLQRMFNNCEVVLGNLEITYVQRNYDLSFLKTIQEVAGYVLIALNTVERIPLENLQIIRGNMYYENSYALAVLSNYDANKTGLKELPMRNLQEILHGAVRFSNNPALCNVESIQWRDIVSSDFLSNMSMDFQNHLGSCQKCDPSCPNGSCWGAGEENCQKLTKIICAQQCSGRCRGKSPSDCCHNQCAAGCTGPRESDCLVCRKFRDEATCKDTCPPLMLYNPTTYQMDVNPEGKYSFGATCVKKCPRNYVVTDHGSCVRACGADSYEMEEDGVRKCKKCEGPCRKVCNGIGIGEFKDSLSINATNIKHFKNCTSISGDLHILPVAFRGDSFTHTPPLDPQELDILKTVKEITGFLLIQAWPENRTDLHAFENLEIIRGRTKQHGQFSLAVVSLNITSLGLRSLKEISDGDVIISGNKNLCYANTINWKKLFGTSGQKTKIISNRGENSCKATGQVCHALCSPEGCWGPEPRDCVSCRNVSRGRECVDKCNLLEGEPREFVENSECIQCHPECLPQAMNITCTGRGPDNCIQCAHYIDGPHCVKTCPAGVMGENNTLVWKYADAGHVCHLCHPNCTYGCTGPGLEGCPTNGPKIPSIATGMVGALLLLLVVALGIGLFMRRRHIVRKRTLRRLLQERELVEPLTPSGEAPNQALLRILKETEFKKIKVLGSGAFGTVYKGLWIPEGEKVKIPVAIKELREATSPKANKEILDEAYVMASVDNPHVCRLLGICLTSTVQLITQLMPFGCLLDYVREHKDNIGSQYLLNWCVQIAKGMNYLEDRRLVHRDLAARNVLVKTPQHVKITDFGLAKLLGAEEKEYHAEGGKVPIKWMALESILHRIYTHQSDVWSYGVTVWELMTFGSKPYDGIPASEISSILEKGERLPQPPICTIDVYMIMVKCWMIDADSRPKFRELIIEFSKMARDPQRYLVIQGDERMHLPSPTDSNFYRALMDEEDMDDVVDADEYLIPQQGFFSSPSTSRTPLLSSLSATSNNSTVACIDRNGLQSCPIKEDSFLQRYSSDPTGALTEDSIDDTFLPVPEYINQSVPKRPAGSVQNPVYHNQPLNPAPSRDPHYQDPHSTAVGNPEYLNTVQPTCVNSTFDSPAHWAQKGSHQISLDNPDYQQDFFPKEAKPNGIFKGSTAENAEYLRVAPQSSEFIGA

[12] = molecular target: T1, CCN family member 2 (Homo sapiens); experiment: Inhibition of recombinant human CCN2 CT domain expressed in human […] cells assessed as reduction in fibronectin synthesis at 100 uM incubated for 24 hrs by Western blotting assay; type: cell-based
[13] = Toxicity in Unilateral ureteric obstruction C57BL/6J mouse model assessed as change in food consumption at 50 microg/kg,ip administrated for 14 days; conditions: in vivo, 0.05 mg/kg, 336 h, dose 50 µg/kg, time 14 day
Mus musculus [14] = experiment: Antifibrotic activity against Unilateral ureteric obstruction ligation induced C57BL/6J mouse kidney fibrosis model assessed as downregulation of EGFR phosphorylation at 50 microg/kg,ip administrated for 14 days by Western blotting analysis; type: functional, organism-based; conditions: dose 50.0 µg/kg, time 14.0 day
Mus musculus [15] = experiment: Antifibrotic activity against Unilateral ureteric obstruction ligation induced C57BL/6J mouse kidney fibrosis model assessed as reduction of renal tubular injury at 50 microg/kg,ip administrated for 14 days by hematoxylin and eosin staining based analysis; type: functional, organism-based; conditions: dose 50.0 µg/kg, time 14.0 day
[16] = molecular target: T1, CCN family member 2 (Homo sapiens); experiment: Inhibition of recombinant human CCN2 FL domain expressed in human HK-1 cells assessed as reduction in fibronectin synthesis at 20 uM incubated for 24 hrs by Western blotting assay; type: cell-based
[17] = AUC (0-t) in Sprague-Dawley rat at 1 mg/kg,SC measured upto 48 hrs by LC-MS/MS analysis; type: ADME, organism-based; parameters: time < 48 hrs, dose 1 mg/kg, route sc; conditions: in vivo
[18] = molecular target: T1, CCN family member 2 (Homo sapiens); experiment: Inhibition of recombinant human CCN2 FL domain expressed in human […] cells assessed as reduction in fibronectin synthesis at 4 to 100 uM incubated for 24 hrs by Western blotting assay; type: cell-based; conditions: dose 4-100 µM
[19] = Tmax in Sprague-Dawley rat at 1 mg/kg,SC measured upto 48 hrs by LC-MS/MS analysis; type: ADME, organism-based; conditions: in vivo
[20] = Toxicity in Unilateral ureteric obstruction C57BL/6J mouse model assessed as change in hair color at 50 microg/kg,ip administrated for 14 days; conditions: in vivo, 0.05 mg/kg, 336 h, dose 50 µg/kg, time 14 day
CCN family member 2 = molecular target: T3, CCN family member 2 (Homo sapiens, UniProt P29279); experiment: Binding affinity to His-tagged full length human CCN2 CT domain assessed as dissociation constant by isothermal titration calorimetry assay
T3 sequence (P29279 whole entry): T1 sequence (whole entry)

[21] = molecular target: T1, CCN family member 2 (Homo sapiens); experiment: Inhibition of recombinant human CCN2 FL domain expressed in human […] cells assessed as reduction in COL1A1 synthesis at 20 uM incubated for 24 hrs by Western blotting assay; type: cell-based
[22] = molecular target: T1, CCN family member 2 (Homo sapiens); experiment: Inhibition of recombinant human CCN2 FL domain expressed in human […] cells assessed as reduction in COL1A1 synthesis at 4 to 100 uM incubated for 24 hrs by Western blotting assay; type: cell-based; conditions: dose 4-100 µM
Mus musculus [23] = experiment: Antifibrotic activity against Unilateral ureteric obstruction ligation induced C57BL/6J mouse kidney fibrosis model assessed as downregulation of STAT3 phosphorylation at 50 microg/kg,ip administrated for 14 days by Western blotting analysis; type: functional, organism-based; conditions: dose 50.0 µg/kg, time 14.0 day
CCN2-EGFR (Homo sapiens) [24] = molecular target: T2, CCN2-EGFR (Homo sapiens); experiment: Inhibition of His-tagged full length human CCN2 FL domain/human Fc-tagged EGFR protein-protein interaction using TMB as chromogenic substrate at 100 uM incubated for 140 mins by microplate reader assay relative to control

- half-life [2]: 54 min
- inhibition [3]: Active
- inhibition [5]: Active
- Cmax [7]: 1060 ng/mL
- inhibition (CCN2-EGFR (Homo sapiens) [11]): 76.7%
- inhibition [12]: Active
- inhibition [16]: Active
- AUC(0-t) at 48 h [17]: 3030 ng·h/mL
- inhibition [18]: Dose-Dependent Effect
- Tmax [19]: 60 min
- Kd (CCN family member 2): 3.1 µM
- inhibition [21]: Active
- inhibition [22]: Dose-Dependent Effect
- inhibition (CCN2-EGFR (Homo sapiens) [24]): 63.8%
SMILES: C[C@@H](O)[C@@H]1NC(=O)[C@H](Cc2c[nH]c3ccccc23)NC(=O)[C@@H]2CCCN2C(=O)[C@H](CCCNC(=N)N)NC(=O)[C@H](Cc2c[nH]cn2)NC(=O)[C@H](CCCCN)NC(=O)[C@H]([C@@H](C)O)NC1=O (cyclo(HRPWTTK))
- Activity (Mus musculus [1]): Active
- Activity (Mus musculus [4]): Active
- Activity (Mus musculus [6]): Active
- Activity [8]: Non-Toxic
- Activity (Mus musculus [9]): Active
- Activity [10]: Non-Toxic
- Activity [13]: Non-Toxic
- Activity (Mus musculus [14]): Active
- Activity (Mus musculus [15]): Active
- Activity [20]: Non-Toxic
- Activity (Mus musculus [23]): Active
